From patent US20160326142A1, “PYRAZOLE CARBOXAMIDE COMPOUNDS, COMPOSITIONS AND METHODS OF USE” (Genentech, Inc., priority 2012, published 2016)

The molecules below were run against T1, ITK (Homo sapiens, UniProt Q08881) (assay: ITK enzyme assay (Caliper or LCMS peptide phosphorylation)). Settings: purified ITK (Invitrogen PV3875), 20 μM ATP, Ki by Morrison's quadratic equation.
T1 construct: purchased Invitrogen PV3875
T1 sequence (Q08881 1-620): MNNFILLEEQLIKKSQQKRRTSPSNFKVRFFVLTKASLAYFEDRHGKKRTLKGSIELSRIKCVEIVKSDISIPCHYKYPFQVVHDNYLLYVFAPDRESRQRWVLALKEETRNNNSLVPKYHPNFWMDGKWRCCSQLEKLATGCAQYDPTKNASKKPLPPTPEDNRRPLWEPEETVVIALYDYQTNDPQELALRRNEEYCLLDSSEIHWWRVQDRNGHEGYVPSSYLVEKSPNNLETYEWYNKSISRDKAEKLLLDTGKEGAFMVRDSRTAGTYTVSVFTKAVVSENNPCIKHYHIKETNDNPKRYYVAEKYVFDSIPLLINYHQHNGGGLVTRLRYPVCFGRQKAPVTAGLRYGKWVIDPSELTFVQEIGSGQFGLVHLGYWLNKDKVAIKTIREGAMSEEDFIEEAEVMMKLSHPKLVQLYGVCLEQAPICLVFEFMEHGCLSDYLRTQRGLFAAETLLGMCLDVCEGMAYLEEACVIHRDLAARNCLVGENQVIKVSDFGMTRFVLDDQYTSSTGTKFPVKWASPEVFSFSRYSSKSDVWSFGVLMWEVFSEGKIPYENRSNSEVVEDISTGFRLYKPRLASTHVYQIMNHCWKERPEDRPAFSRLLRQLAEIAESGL
Assay type: biochemical
Summary of the method: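 Ki values come from Morrison quadratic fits of activity versus inhibitor concentration, adjusted for ATP-competitive inhibition against ATP/Km,app. Substrate and phosphopeptide from purified ITK reactions were resolved either microfluidically (Caliper, EDTA stop) or by LC-MS MRM (TCA stop).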

| Ki [nM] | Structure (SMILES) |
| --- | --- |
| 20 | CC1(C)CCc2c(C(=O)Nc3cnn(C(CN4CCOCC4=O)c4ccccc4)c3)n[nH]c2C1 (single isomer, unassigned) [Example 77a, 6,6-dimethyl-N-(1-(2-(3-oxomorpholino)-1-phenylethyl)-1H-pyrazol-4-yl)-4,5,6,7-tetrahydro-1H-indazole-3-carboxamide] |
| 2 | CC1(C)CCc2c(C(=O)Nc3cnn(C(CN4CCOCC4=O)c4ccccc4)c3)n[nH]c2C1 (single isomer, unassigned) [Example 77b, 6,6-dimethyl-N-(1-(2-(3-oxomorpholino)-1-phenylethyl)-1H-pyrazol-4-yl)-4,5,6,7-tetrahydro-1H-indazole-3-carboxamide] |
| 26 | CC(C1CCOCC1)n1cc(NC(=O)c2n[nH]c3c2CCC(C)(C)C3)cn1 (single isomer, unassigned) [Example 78a, 6,6-dimethyl-N-(1-(1-(tetrahydro-2H-pyran-4-yl)ethyl)-1H-pyrazol-4-yl)-4,5,6,7-tetrahydro-1H-indazole-3-carboxamide] |
| 6 | CC(C1CCOCC1)n1cc(NC(=O)c2n[nH]c3c2CCC(C)(C)C3)cn1 (single isomer, unassigned) [Example 78b, 6,6-dimethyl-N-(1-(1-(tetrahydro-2H-pyran-4-yl)ethyl)-1H-pyrazol-4-yl)-4,5,6,7-tetrahydro-1H-indazole-3-carboxamide] |
| 46 | O=C(Nc1cnn(Cc2ccccc2)c1)c1n[nH]c2c1CC1(CCOC1)C2 (single isomer, unassigned) [Example 79a, N-(1-benzyl-1H-pyrazol-4-yl)-4,4′,5′,6-tetrahydro-1H,2′H-spiro[cyclopenta[c]pyrazole-5,3′-furan]-3-carboxamide] |
| 95 | O=C(Nc1cnn(Cc2ccccc2)c1)c1n[nH]c2c1CC1(CCOC1)C2 (single isomer, unassigned) [Example 79b, N-(1-benzyl-1H-pyrazol-4-yl)-4,4′,5′,6-tetrahydro-1H,2′H-spiro[cyclopenta[c]pyrazole-5,3′-furan]-3-carboxamide] |
| 2 | CC1(C)CCc2c(C(=O)Nc3cnn(C(CCC#N)c4cccnc4)c3)n[nH]c2C1 (single isomer, unassigned) [Example 80a, N-(1-(3-cyano-1-(pyridin-3-yl)propyl)-1H-pyrazol-4-yl)-6,6-dimethyl-4,5,6,7-tetrahydro-1H-indazole-3-carboxamide] |
| 2 | CC1(C)CCc2c(C(=O)Nc3cnn(C(CCC#N)c4cccnc4)c3)n[nH]c2C1 (single isomer, unassigned) [Example 80b, N-(1-(3-cyano-1-(pyridin-3-yl)propyl)-1H-pyrazol-4-yl)-6,6-dimethyl-4,5,6,7-tetrahydro-1H-indazole-3-carboxamide] |
| 17 | CC1(C)CCc2c(C(=O)Nc3cnn(C(CO)c4cccnc4)c3)n[nH]c2C1 (single isomer, unassigned) [Example 81a, N-(1-(2-hydroxy-1-(pyridin-3-yl)ethyl)-1H-pyrazol-4-yl)-6,6-dimethyl-4,5,6,7-tetrahydro-1H-indazole-3-carboxamide] |
| 3 | CC1(C)CCc2c(C(=O)Nc3cnn(C(CO)c4cccnc4)c3)n[nH]c2C1 (single isomer, unassigned) [Example 81b, N-(1-(2-hydroxy-1-(pyridin-3-yl)ethyl)-1H-pyrazol-4-yl)-6,6-dimethyl-4,5,6,7-tetrahydro-1H-indazole-3-carboxamide] |
| 46 | CC(c1cscn1)n1cc(NC(=O)c2n[nH]c3c2CCC(C)(C)C3)cn1 (single isomer, unassigned) [Example 84a, 6,6-dimethyl-N-(1-(1-(thiazol-4-yl)ethyl)-1H-pyrazol-4-yl)-4,5,6,7-tetrahydro-1H-indazole-3-carboxamide] |
| 13 | CC(c1cscn1)n1cc(NC(=O)c2n[nH]c3c2CCC(C)(C)C3)cn1 (single isomer, unassigned) [Example 84b, 6,6-dimethyl-N-(1-(1-(thiazol-4-yl)ethyl)-1H-pyrazol-4-yl)-4,5,6,7-tetrahydro-1H-indazole-3-carboxamide] |
| 0.6 | CC1(C)CCc2c(C(=O)Nc3cnn(C(c4nccs4)C4CCSCC4)c3)n[nH]c2C1 (single isomer, unassigned) [Example 85a, 6,6-dimethyl-N-(1-((tetrahydro-2H-thiopyran-4-yl)(thiazol-2-yl)methyl)-1H-pyrazol-4-yl)-4,5,6,7-tetrahydro-1H-indazole-3-carboxamide] |
| 0.9 | CC1(C)CCc2c(C(=O)Nc3cnn(C(c4nccs4)C4CCSCC4)c3)n[nH]c2C1 (single isomer, unassigned) [Example 85b, 6,6-dimethyl-N-(1-((tetrahydro-2H-thiopyran-4-yl)(thiazol-2-yl)methyl)-1H-pyrazol-4-yl)-4,5,6,7-tetrahydro-1H-indazole-3-carboxamide] |
| 0.4 | CC1(C)CCc2c(C(=O)Nc3cnn(C(c4nccs4)C4CCS(=O)(=O)CC4)c3)n[nH]c2C1 (single isomer, unassigned) [Example 87a, N-(1-((1,1-dioxidotetrahydro-2H-thiopyran-4-yl)(thiazol-2-yl)methyl)-1H-pyrazol-4-yl)-6,6-dimethyl-4,5,6,7-tetrahydro-1H-indazole-3-carboxamide] |
| 1 | CC1(C)CCc2c(C(=O)Nc3cnn(C(c4nccs4)C4CCS(=O)(=O)CC4)c3)n[nH]c2C1 (single isomer, unassigned) [Example 87b, N-(1-((1,1-dioxidotetrahydro-2H-thiopyran-4-yl)(thiazol-2-yl)methyl)-1H-pyrazol-4-yl)-6,6-dimethyl-4,5,6,7-tetrahydro-1H-indazole-3-carboxamide] |
| 0.1 | CC1(C)CCc2c(C(=O)Nc3cnn(C(c4cccnc4)C4CCOCC4)c3)n[nH]c2C1 (single isomer, unassigned) [Example 88a, 6,6-dimethyl-N-(1-(pyridin-3-yl(tetrahydro-2H-pyran-4-yl)methyl)-1H-pyrazol-4-yl)-4,5,6,7-tetrahydro-1H-indazole-3-carboxamide] |
| 0.7 | CC1(C)CCc2c(C(=O)Nc3cnn(C(c4cccnc4)C4CCOCC4)c3)n[nH]c2C1 (single isomer, unassigned) [Example 88b, 6,6-dimethyl-N-(1-(pyridin-3-yl(tetrahydro-2H-pyran-4-yl)methyl)-1H-pyrazol-4-yl)-4,5,6,7-tetrahydro-1H-indazole-3-carboxamide] |
| 0.2 | CC1(C)CCc2c(C(=O)Nc3cnn(C(c4ccccc4)C4CS(=O)(=O)C4)c3)n[nH]c2C1 (single isomer, unassigned) [Example 89a] |
| 4 | CC1(C)CCc2c(C(=O)Nc3cnn(C(c4ccccc4)C4CS(=O)(=O)C4)c3)n[nH]c2C1 (single isomer, unassigned) [Example 89b] |
| 570 | CC1(C)Cc2[nH]nc(C(=O)Nc3cnn(Cc4ccccc4)c3)c2CC1C#N (single isomer, unassigned) [Example 90a, N-(1-benzyl-1H-pyrazol-4-yl)-5-cyano-6,6-dimethyl-4,5,6,7-tetrahydro-1H-indazole-3-carboxamide] |
| 10 | CC1(C)Cc2[nH]nc(C(=O)Nc3cnn(Cc4ccccc4)c3)c2CC1C#N (single isomer, unassigned) [Example 90b, N-(1-benzyl-1H-pyrazol-4-yl)-5-cyano-6,6-dimethyl-4,5,6,7-tetrahydro-1H-indazole-3-carboxamide] |
